# Laboratory results: patent US20260200897A1, “4-((5-(3-(4-(PYRIDIN-2-YL)CYCLOPENTYL)-1H-PYRAZOL-3-YL)AMINO)-BENZENESULFONAMIDE DERIVATIVES AND SIMILAR COMPOUNDS AS CDK INHIBITORS FOR THE TREATMENT OF CANCER” (BeOne Medicines I GmbH, priority 2023, published 2026)
# What was measured:
# [1] = molecular target: CDK2/Cyclin E1 (Homo sapiens, UniProt P24941); assay: CDK2/Cyclin E1 TR-FRET biochemical assay, 1 mM ATP; settings: 0.15 μM Rb (Ser780)-biotin substrate, 90 min reaction, Table 2
# Experimental: (§1) Compounds disclosed herein were tested for inhibition of CDK2/Cyclin E1 or CDK1/Cyclin B kinase in an assay based on the time-resolved fluorescence-resonance energy transfer (TR-FRET) methodology. The assay was carried out in 384-well low volume black plates in a reaction mixture containing CDK2/Cyclin E1 or CDK1/Cyclin B1, 1 mM ATP for CDK2/Cyclin E1 and CDK1/Cyclin B1, 0.15 μM Rb (Ser780)-biotin substrate and 0-10 μM compound in buffer containing 50 mM HEPES pH7.0, 0.02% NaN3, 0.01% BSA, 0.1 mM Orthovanadate, 50 mM MgCl2, 1 mM DTT and 0.005% Tween-20. The kinase was incubated with compound for 60 minutes at room temperature and the reaction was initiated by the addition of ATP and Rb (Ser780)-biotin substrate. After reaction at room temperature for 90 minutes, an equal volume of stop/detection solution was added according to the manufacture's instruction (Cisbio Bioassays). The stop/detection solution contained Streptavidin-XL665 and Anti-pRb (Ser780) mAb-Eu Cryptate in Detection buffer (Cisbio Bioassays). Plates were incubated at room temperature for 60 minutes, and the TR-FRET signals (ex337 nm, em665 nm/620 nm) were recorded on a PHERAstar FSX plate reader (BMG Labtech). The inhibition percentage of CDK2/Cyclin E1 or CDK1/Cyclin B1 kinase activity in presence of increasing concentrations of compounds was calculated based on the ratio of fluorescence at 665 nm to that at 620 nm. The IC50 for each compound was derived from fitting the data to the four-parameter logistic equation by Dotmatics.
# [2] = molecular target: CDK1/Cyclin B1 (Homo sapiens, UniProt P06493); assay: CDK1/Cyclin B1 TR-FRET biochemical assay, 1 mM ATP; settings: 0.15 μM Rb (Ser780)-biotin substrate, 90 min reaction, Table 2
# Sequence of CDK1/Cyclin B1 (P06493 whole entry): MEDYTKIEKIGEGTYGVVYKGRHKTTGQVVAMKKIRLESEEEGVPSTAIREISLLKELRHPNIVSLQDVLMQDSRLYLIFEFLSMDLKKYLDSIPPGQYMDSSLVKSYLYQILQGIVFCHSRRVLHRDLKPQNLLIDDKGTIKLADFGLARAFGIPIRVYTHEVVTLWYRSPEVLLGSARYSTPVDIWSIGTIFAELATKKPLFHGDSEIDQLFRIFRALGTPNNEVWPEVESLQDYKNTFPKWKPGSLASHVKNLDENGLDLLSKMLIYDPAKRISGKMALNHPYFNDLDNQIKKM
# Sequence of CDK1/Cyclin B1 (P14635 whole entry partner): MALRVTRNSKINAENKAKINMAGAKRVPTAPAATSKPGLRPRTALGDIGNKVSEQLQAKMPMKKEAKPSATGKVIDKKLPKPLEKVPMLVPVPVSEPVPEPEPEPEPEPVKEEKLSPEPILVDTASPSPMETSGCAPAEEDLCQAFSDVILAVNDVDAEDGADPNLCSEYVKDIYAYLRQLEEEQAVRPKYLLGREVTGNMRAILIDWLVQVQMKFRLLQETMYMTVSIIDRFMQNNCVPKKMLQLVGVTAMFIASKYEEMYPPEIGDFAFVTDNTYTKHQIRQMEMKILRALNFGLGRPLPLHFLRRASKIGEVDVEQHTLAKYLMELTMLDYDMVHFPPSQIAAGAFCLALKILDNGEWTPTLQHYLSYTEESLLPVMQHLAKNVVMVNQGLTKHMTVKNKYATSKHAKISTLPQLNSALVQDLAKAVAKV
# Experimental: as §1
Compound,IC50 [1],IC50 [2]
"CC(C)(O)c1cc(C2CCC(c3cc(Nc4ccc5c(c4F)CNS5(=O)=O)n[nH]3)C2)n[nH]1 (stereo not drawn) [Example 101, 4-fluoro-5-((5-(3-(5-(2-hydroxypropan-2-yl)-1H-pyrazol-3-yl)cyclopentyl)-1H-pyrazol-3-yl)amino)-2,3-dihydrobenzo[d]isothiazole 1,1-dioxide]",0.564 µM,> 10 µM
"CC(C)(C)c1cn([C@@H]2CC[C@H](c3cc(Nc4ccc5c(c4F)CNS5(=O)=O)n[nH]3)C2)nn1 (relative stereo) [Example 90, cis-5-((5-(3-(4-(tert-butyl)-1H-1,2,3-triazol-1-yl)cyclopentyl)-1H-pyrazol-3-yl)amino)-4-fluoro-2,3-dihydrobenzo[d]isothiazole 1,1-dioxide]",3.31 µM,> 10 µM
"CC(C)(C)c1cnnc(C2CCC(c3cc(Nc4ccc5c(c4F)CNS5(=O)=O)n[nH]3)C2)c1 (stereo not drawn) [Example 131, 5-((5-(3-(5-(tert-butyl)pyridazin-3-yl)cyclopentyl)-1H-pyrazol-3-yl)amino)-4-fluoro-2,3-dihydrobenzo[d]isothiazole 1,1-dioxide]",0.167 µM,> 10 µM
"CC(C)(C)c1cn([C@@H]2CC[C@H](c3cc(Nc4ccc5c(c4F)CNS5(=O)=O)n[nH]3)C2)cn1 (relative stereo) [Example 88, cis-5-((5-(3-(4-(tert-butyl)-1H-imidazol-1-yl)cyclopentyl)-1H-pyrazol-3-yl)amino)-4-fluoro-2,3-dihydrobenzo[d]isothiazole 1,1-dioxide]",> 10 µM,> 10 µM
"Cc1cc(C(C)(C)C)cc(C2CCC(c3cc(Nc4ccc(S(N)(=O)=O)cc4F)n[nH]3)C2)n1 (stereo not drawn) [Example 2, 4-((5-(3-(4-(tert-butyl)-6-methylpyridin-2-yl)cyclopentyl)-1H-pyrazol-3-yl)amino)-3-fluorobenzenesulfonamide]",5.68 µM,> 10 µM
"CC(C)(C)c1nnc([C@H]2CC[C@H](c3cc(Nc4ccc5c(c4F)CS(=O)(=O)N5)n[nH]3)C2)o1 (relative stereo) [Example 147, trans-5-((5-(3-(5-(tert-butyl)-1,3,4-oxadiazol-2-yl)cyclopentyl)-1H-pyrazol-3-yl)amino)-4-fluoro-1,3-dihydrobenzo[c]isothiazole 2,2-dioxide]",0.851 µM,> 10 µM
"CC(C)(C)c1cnc(C2CCC(c3cc(Nc4ccc(S(N)(=O)=O)cc4F)n[nH]3)C2)o1 (single isomer, unassigned) [Example 6c, 4-((5-(3-(5-(tert-butyl)oxazol-2-yl)cyclopentyl)-1H-pyrazol-3-yl)amino)-3-fluorobenzenesulfonamide]",1.91 µM,> 10 µM
"Cc1cccc(C2CCC(c3cc(Nc4cc5c(cc4F)S(=O)(=O)NC5)n[nH]3)C2)n1 (stereo not drawn) [Example 12, 6-fluoro-5-((5-(3-(6-methylpyridin-2-yl)cyclopentyl)-1H-pyrazol-3-yl)amino)-2,3-dihydrobenzo[d]isothiazole 1,1-dioxide]",3.99 µM,> 10 µM
"CC(C)(C)c1cnc(C2CCC(c3cc(Nc4cc5c(cc4F)S(=O)(=O)NC5)n[nH]3)C2)o1 (single isomer, unassigned) [Example 17b, 5-((5-(3-(5-(tert-butyl)oxazol-2-yl)cyclopentyl)-1H-pyrazol-3-yl)amino)-6-fluoro-2,3-dihydrobenzo[d]isothiazole 1,1-dioxide]",7.71 µM,> 10 µM
"C=C(C)c1cc(C2CCC(c3cc(Nc4ccc5c(c4F)CS(=O)(=O)N5)n[nH]3)C2)n[nH]1 (stereo not drawn) [Example 151, 4-fluoro-5-((5-(3-(5-(prop-1-en-2-yl)-1H-pyrazol-3-yl)cyclopentyl)-1H-pyrazol-3-yl)amino)-1,3-dihydrobenzo[c]isothiazole 2,2-dioxide]",1.4 µM,> 10 µM
"CC(C)(C)c1cccc(C2=CC(c3cc(Nc4ccc5c(c4F)CS(=O)(=O)N5)n[nH]3)CC2)n1 (stereo not drawn) [Example 157, 5-((5-(3-(6-(tert-butyl)pyridin-2-yl)cyclopent-2-en-1-yl)-1H-pyrazol-3-yl)amino)-4-fluoro-1,3-dihydrobenzo[c]isothiazole 2,2-dioxide]",> 10 µM,> 10 µM
"CC(C)(C)c1ccc(C2CCC(c3cc(Nc4ccc5c(c4F)CS(=O)(=O)N5)n[nH]3)C2)o1 (stereo not drawn) [Example 153, 5-((5-(3-(5-(tert-butyl)furan-2-yl)cyclopentyl)-1H-pyrazol-3-yl)amino)-4-fluoro-1,3-dihydrobenzo[c]isothiazole 2,2-dioxide]",1.02 µM,> 10 µM
"COc1cccc(C2CCC(c3cc(Nc4ccc5c(c4F)CNS5(=O)=O)n[nH]3)C2)n1 (stereo not drawn) [Example 121, 4-fluoro-5-((5-(3-(6-methoxypyridin-2-yl)cyclopentyl)-1H-pyrazol-3-yl)amino)-2,3-dihydrobenzo[d]isothiazole 1,1-dioxide]",3.87 µM,> 10 µM

# These reach a lower IC50 [1]. Values come first.
IC50 [1],IC50 [2],Compound
0.0015 µM,0.142 µM,"CC(C)(C)c1ccnc([C@@H]2CC[C@H](c3cc(Nc4ccc5c(c4F)CNS5(=O)=O)n[nH]3)C2)n1 (relative stereo) [Example 127, cis-5-((5-(3-(4-(tert-butyl)pyrimidin-2-yl)cyclopentyl)-1H-pyrazol-3-yl)amino)-4-fluoro-2,3-dihydrobenzo[d]isothiazole 1,1-dioxide]"
0.074 µM,> 10 µM,"CC(C)(C)c1nnc([C@@H]2CC[C@H](c3cc(Nc4ccc5c(c4F)CS(=O)(=O)N5)n[nH]3)C2)o1 (relative stereo) [Example 146, cis-5-((5-(3-(5-(tert-butyl)-1,3,4-oxadiazol-2-yl)cyclopentyl)-1H-pyrazol-3-yl)amino)-4-fluoro-1,3-dihydrobenzo[c]isothiazole 2,2-dioxide]"
0.073 µM,> 10 µM,"O=S1(=O)NCc2cc(Nc3cc(C4CCC(c5ncc(C6CC6)o5)C4)[nH]n3)c(F)cc21 (stereo not drawn) [Example 20, 5-((5-(3-(5-cyclopropyloxazol-2-yl)cyclopentyl)-1H-pyrazol-3-yl)amino)-6-fluoro-2,3-dihydrobenzo[d]isothiazole 1,1-dioxide]"
0.006 µM,0.624 µM,"CN1c2ccc(Nc3cc(C4CCC(c5ncc(C(C)(C)C)o5)C4)[nH]n3)cc2CS1(=O)=O (stereo not drawn) [Example 140, 5-((5-(3-(5-(tert-butyl)oxazol-2-yl)cyclopentyl)-1H-pyrazol-3-yl)amino)-1-methyl-1,3-dihydrobenzo[c]isothiazole 2,2-dioxide]"
0.0006 µM,0.135 µM,"CN1c2ccc(Nc3cc([C@H]4CC[C@@H](c5ncc(C(C)(C)C)o5)C4)[nH]n3)cc2CS1(=O)=O [Example 141, 5-((5-((1S,3R)-3-(5-(tert-butyl)oxazol-2-yl)cyclopentyl)-1H-pyrazol-3-yl)amino)-1-methyl-1,3-dihydrobenzo[c]isothiazole 2,2-dioxide]"
0.034 µM,6.77 µM,"CC(C)(C)c1ccnc(C2CCC(c3cc(Nc4ccc5c(c4F)CNS5(=O)=O)[nH]n3)C2)c1 (stereo not drawn) [Example 117, 5-((3-(3-(4-(tert-butyl)pyridin-2-yl)cyclopentyl)-1H-pyrazol-5-yl)amino)-4-fluoro-2,3-dihydrobenzo[d]isothiazole 1,1-dioxide]"
0.017 µM,4.47 µM,"Cc1nc(C2CCC(c3cc(Nc4ccc5c(c4F)CNS5(=O)=O)n[nH]3)C2)oc1C(C)(C)C (stereo not drawn) [Example 111, 5-((5-(3-(5-(tert-butyl)-4-methyloxazol-2-yl)cyclopentyl)-1H-pyrazol-3-yl)amino)-4-fluoro-2,3-dihydrobenzo[d]isothiazole 1,1-dioxide]"
0.0028 µM,0.198 µM,"CC(C)(C)c1cnc(C2CCC(c3cc(Nc4ccc5c(c4F)CS(=O)(=O)C5)n[nH]3)C2)o1 (stereo not drawn) [Example 173, 5-((5-(3-(5-(tert-butyl)oxazol-2-yl)cyclopentyl)-1H-pyrazol-3-yl)amino)-4-fluoro-1,3-dihydrobenzo[c]thiophene 2,2-dioxide]"
0.0043 µM,3.5 µM,"CC(C)(C)c1csnc1O[C@@H]1CC[C@H](c2cc(Nc3ccc4c(c3F)CNS4(=O)=O)n[nH]2)C1 (relative stereo) [Example 56, cis-5-((5-(3-((4-(tert-butyl)isothiazol-3-yl)oxy)cyclopentyl)-1H-pyrazol-3-yl)amino)-4-fluoro-2,3-dihydrobenzo[d]isothiazole 1,1-dioxide]"
0.0086 µM,2.87 µM,"CC(C)c1cnc(C2CCC(c3cc(Nc4ccc5c(c4F)CNS5(=O)=O)n[nH]3)C2)o1 (single isomer, unassigned) [Example 109a, 4-fluoro-5-((5-(3-(5-isopropyloxazol-2-yl)cyclopentyl)-1H-pyrazol-3-yl)amino)-2,3-dihydrobenzo[d]isothiazole 1,1-dioxide]"
0.008 µM,1.1 µM,"CC(C)c1cnc(C2CCC(c3cc(Nc4ccc5c(c4F)CCS(=O)(=O)N5)n[nH]3)C2)o1 (stereo not drawn) [Example 167, 5-fluoro-6-((5-(3-(5-isopropyloxazol-2-yl)cyclopentyl)-1H-pyrazol-3-yl)amino)-3,4-dihydro-1H-benzo[c][1,2]thiazine 2,2-dioxide]"
